Data taken from the NIST ThermoML archive (doi:10.1016/j.jct.2019.02.028).

Settings: Gas, Burnett expansion method

[He] [helium]
Settings | mass density [kg/m3]
323.66 K, 875.31 kPa | 1.297
323.67 K, 386.6 kPa | 0.5746
323.67 K, 1986.4 kPa | 2.9278
323.67 K, 2996.7 kPa | 4.3975
323.68 K, 581.96 kPa | 0.8635
323.68 K, 1318.2 kPa | 1.9481
323.68 K, 4542.5 kPa | 6.6206
333.58 K, 398.41 kPa | 0.5744
333.58 K, 901.91 kPa | 1.2964
333.58 K, 1358 kPa | 1.9472
333.58 K, 3086.7 kPa | 4.3949
333.58 K, 4675.1 kPa | 6.6128
333.59 K, 2046.3 kPa | 2.926
333.62 K, 599.5 kPa | 0.8631
343.5 K, 616.99 kPa | 0.8628
343.5 K, 1397.8 kPa | 1.9464
343.51 K, 928.6 kPa | 1.2959
343.51 K, 3177 kPa | 4.3922
343.51 K, 4808.1 kPa | 6.6049
343.52 K, 410.1 kPa | 0.5742
343.52 K, 2106 kPa | 2.9243
353.39 K, 421.94 kPa | 0.5741
353.39 K, 634.63 kPa | 0.8624
353.39 K, 3267.2 kPa | 4.3896
353.39 K, 4938.7 kPa | 6.5971
353.4 K, 954.95 kPa | 1.2953
353.4 K, 1437.5 kPa | 1.9455
353.4 K, 2165.8 kPa | 2.9225
363.2 K, 2225.1 kPa | 2.9208
363.28 K, 1476.9 kPa | 1.9446
363.28 K, 5072.4 kPa | 6.5893
363.29 K, 433.46 kPa | 0.5739
363.29 K, 433.47 kPa | 0.5739
363.29 K, 652.06 kPa | 0.862
363.29 K, 652.07 kPa | 0.862
363.29 K, 981.18 kPa | 1.2947
363.29 K, 2225 kPa | 2.9208
363.29 K, 3356.7 kPa | 4.387
